ChEMBL document CHEMBL5096221, “Discovery of a Highly Potent and Orally Bioavailable STAT3 Dual Phosphorylation Inhibitor for Pancreatic Cancer Treatment” (J Med Chem, 2022)
Calls of active or inactive are those of the source. No cut-off for these calls is given here.

Tests used:
[1] = Toxicity in BALB/c mouse xenografted with human BXPC-3 cells assessed as effect on kidney at 10 mg/kg,po administrated once daily for 8 weeks by H and E staining based microscopic analysis; type: organism-based; details: in vivo, 1344 h
[2] = Half life in BALB/c mouse at 10 mg/kg,po measured upto 24 hrs by LC-MS/MS analysis; type: ADME, organism-based; details: in vivo
Capan-2 = assay: Anti-proliferative activity against human Capan-2 cells assessed as cell growth inhibition incubated for 72 hrs by MTS assay; type: functional, cell-based; details: Capan-2, 72 h
[3] = AUC (0-infinity) in BALB/c mouse at 1 mg/kg,iv measured upto 24 hrs by LC-MS/MS analysis; type: ADME, organism-based; set-up: dose 1 mg/kg, time < 24 hrs, route iv; details: in vivo
[4] = molecular target: T1, Signal transducer and activator of transcription 3 (Homo sapiens, UniProt P40763); assay: Inhibition of STAT3 in human Capan-2 cells assessed as reduction of Cyclin D1 expression at 1 to 30 nM incubated for 22 to 24 hrs by western blot analysis; type: cell-based; details: dose 1-30 nM, time 22-24 hrs, DDE = dose-dependent effect
T1 sequence (P40763 whole entry): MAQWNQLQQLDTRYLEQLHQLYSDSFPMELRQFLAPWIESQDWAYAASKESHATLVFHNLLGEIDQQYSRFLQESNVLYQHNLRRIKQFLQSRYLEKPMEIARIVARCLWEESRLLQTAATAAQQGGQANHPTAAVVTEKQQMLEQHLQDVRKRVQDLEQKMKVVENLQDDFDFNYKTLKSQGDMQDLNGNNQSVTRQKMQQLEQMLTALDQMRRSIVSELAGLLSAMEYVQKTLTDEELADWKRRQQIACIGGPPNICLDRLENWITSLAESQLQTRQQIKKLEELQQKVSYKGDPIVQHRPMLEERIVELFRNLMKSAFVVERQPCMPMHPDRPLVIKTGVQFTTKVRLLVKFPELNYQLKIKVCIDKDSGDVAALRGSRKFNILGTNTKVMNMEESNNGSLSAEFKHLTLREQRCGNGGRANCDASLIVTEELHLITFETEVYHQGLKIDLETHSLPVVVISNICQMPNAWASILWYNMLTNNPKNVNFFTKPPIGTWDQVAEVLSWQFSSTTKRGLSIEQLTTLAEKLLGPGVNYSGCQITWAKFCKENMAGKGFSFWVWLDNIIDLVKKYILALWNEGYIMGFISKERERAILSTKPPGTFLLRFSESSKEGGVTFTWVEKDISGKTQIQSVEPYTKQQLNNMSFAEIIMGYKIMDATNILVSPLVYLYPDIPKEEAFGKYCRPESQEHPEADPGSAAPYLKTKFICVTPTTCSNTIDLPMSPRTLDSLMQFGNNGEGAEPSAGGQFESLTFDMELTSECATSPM

[5] = molecular target: T1, Signal transducer and activator of transcription 3; assay: Inhibition of STAT3 in human HEK293T cells assessed as inhibition of IL-6 stimulated STAT3 phosphorylation by dual-luciferase reporter assay; type: cell-based
[6] = molecular target: T1, Signal transducer and activator of transcription 3; assay: Inhibition of STAT3 in human BXPC-3 cells assessed as reduction of c-Myc expression at 1 to 30 nM incubated for 22 to 24 hrs by western blot analysis; type: cell-based; details: dose 1-30 nM, time 22-24 hrs, DDE = dose-dependent effect
[7] = MRT (0 to last) in BALB/c mouse at 1 mg/kg,iv measured upto 24 hrs by LC-MS/MS analysis; type: ADME, organism-based; details: BALB/c, in vivo
[8] = molecular target: T1, Signal transducer and activator of transcription 3; assay: Inhibition of STAT3 in human BXPC-3 cells assessed as reduction of Cyclin D1 expression at 30 nM incubated for 4 to 24 hrs by western blot analysis; type: cell-based; details: time 4-24 hrs, TDE = time-dependent effect
[9] = molecular target: T1, Signal transducer and activator of transcription 3; assay: Inhibition of STAT3 in human Capan-2 cells assessed as reduction of c-Myc expression at 1 to 30 nM incubated for 22 to 24 hrs by western blot analysis; type: cell-based; details: dose 1-30 nM, time 22-24 hrs, DDE = dose-dependent effect
[10] = molecular target: T1, Signal transducer and activator of transcription 3; assay: Inhibition of STAT3 in human Capan-2 cells assessed as inhibition of STAT3 phosphorylation at Ser 727 at 30 nM incubated for 4 to 24 hrs by western blot analysis; type: cell-based; details: time 4-24 hrs, TDE = time-dependent effect
[11] = Microsomal stability in human liver microsomes assessed as intrinsic clearance incubated upto 40 mins in presence of NADPH by LC-MS/MS analysis; type: ADME, Microsome; details: read-out: CLH
[12] = Microsomal stability in rat liver microsomes assessed as intrinsic clearance incubated upto 40 mins in presence of NADPH by LC-MS/MS analysis; type: ADME, Microsome; details: read-out: CLH
[13] = Toxicity in BALB/c mouse xenografted with human BXPC-3 cells assessed as effect on kidney at 30 mg/kg,po administrated once daily for 8 weeks by H and E staining based microscopic analysis; type: organism-based; details: in vivo, 1344 h
CFPAC-1 [14] = assay: Anti-proliferative activity against human CFPAC-1 cells assessed as cell growth inhibition incubated for 72 hrs by MTS assay; type: functional, cell-based; details: CFPAC-1, 72 h
[15] = molecular target: T1, Signal transducer and activator of transcription 3; assay: Thermal stabilization of STAT3 in human BXPC-3 cells at 10 microM at 50.6 degreeC incubated for 1 hrs by cellular thermal shift assay; type: cell-based
[16] = molecular target: T1, Signal transducer and activator of transcription 3; assay: Thermal stabilization of STAT3 in human BXPC-3 cells at 10 microM at 47.4 degreeC incubated for 1 hrs by cellular thermal shift assay; type: cell-based
[17] = molecular target: T1, Signal transducer and activator of transcription 3; assay: Inhibition of STAT3 in human Capan-2 cells assessed as reduction of Cyclin D1 expression at 30 nM incubated for 4 to 24 hrs by western blot analysis; type: cell-based; details: time 4-24 hrs, TDE = time-dependent effect
Mus musculus = assay: In vivo inhibition of STAT3 in BALB/c mouse xenografted with human BXPC-3 cells assessed as inhibition of STAT3 phosphorylation at Tyr 705 at 30 mg/kg,po administrated once daily for 8 weeks by immunohistochemical analysis; type: functional, organism-based
[18] = Microsomal stability in human liver microsomes assessed as compound remaining incubated for 60 mins in presence of NADPH by LC-MS/MS analysis; type: ADME, Microsome; details: read-out: Stability
[19] = Toxicity in BALB/c mouse xenografted with human BXPC-3 cells assessed as effect on lung at 30 mg/kg,po administrated once daily for 8 weeks by H and E staining based microscopic analysis; type: organism-based; details: in vivo, 1344 h
[20] = Microsomal stability in rat liver microsomes assessed as half life incubated upto 40 mins in presence of NADPH by LC-MS/MS analysis; type: ADME, Microsome
BXPC-3 [21] = assay: Antitumor activity against human BXPC-3 cells xenografted BALB/c mouse model assessed as reduction in Ki67 expression at 10 mg/kg,po administrated once daily for 8 weeks by immunohistochemical analysis; type: functional, organism-based
[22] = Microsomal stability in rat liver microsomes assessed as compound remaining incubated for 60 mins in presence of NADPH by LC-MS/MS analysis; type: ADME, Microsome; details: read-out: Stability
[23] = Inhibition of ATP production in human BXPC-3 cells incubated for 20 to 24 hrs by ATP assay kit method; type: functional, cell-based
[24] = Volume of distribution at steady state in BALB/c mouse at 1 mg/kg,iv measured upto 24 hrs by LC-MS/MS analysis; type: ADME, organism-based; details: BALB/c, in vivo, read-out: Vdss
[25] = Toxicity in BALB/c mouse xenografted with human BXPC-3 cells assessed as effect on lung at 10 mg/kg,po administrated once daily for 8 weeks by H and E staining based microscopic analysis; type: organism-based; details: in vivo, 1344 h
BXPC-3 [26] = assay: Antitumor activity against human BXPC-3 cells xenografted BALB/c mouse model assessed as reduction in Ki67 expression at 30 mg/kg,po administrated once daily for 8 weeks by immunohistochemical analysis; type: functional, organism-based
[27] = molecular target: T1, Signal transducer and activator of transcription 3; assay: Inhibition of STAT3 in human Capan-2 cells assessed as inhibition of STAT3 phosphorylation at Tyr 705 at 10 nM incubated for 22 to 24 hrs by western blot analysis; type: cell-based; details: time 22-24 hrs
CFPAC-1 [28] = assay: Inhibition of mitochondrial respiration in human CFPAC-1 cells assessed as reduction in maximal respiration rate at 1 to 30 nM incubated for 1 hr by seahorse XF96 flux analyzer; type: functional, cell-based; details: dose 1-30 nM, DDE = dose-dependent effect
[29] = molecular target: T1, Signal transducer and activator of transcription 3; assay: Inhibition of STAT3 in human BXPC-3 cells assessed as inhibition of STAT3 phosphorylation at Tyr 705 at 30 nM incubated for 4 to 24 hrs by western blot analysis; type: cell-based; details: time 4-24 hrs, TDE = time-dependent effect
BXPC-3 [30] = assay: Antitumor activity against human BXPC-3 cells xenografted BALB/c mouse model assessed as tumor growth inhibition at 10 mg/kg,po administrated once daily for 8 weeks; type: functional; details: BXPC-3, 1344 h, read-out: TGI
[31] = molecular target: T1, Signal transducer and activator of transcription 3; assay: Binding affinity to human recombinant STAT3 expressed in Escherichia coli BL21 by MST assay
[32] = molecular target: Tyrosine-protein kinase JAK2 (Homo sapiens, UniProt O60674); assay: Inhibition of JAK2 (unknown origin)
Tyrosine-protein kinase JAK2, sequence (O60674 whole entry): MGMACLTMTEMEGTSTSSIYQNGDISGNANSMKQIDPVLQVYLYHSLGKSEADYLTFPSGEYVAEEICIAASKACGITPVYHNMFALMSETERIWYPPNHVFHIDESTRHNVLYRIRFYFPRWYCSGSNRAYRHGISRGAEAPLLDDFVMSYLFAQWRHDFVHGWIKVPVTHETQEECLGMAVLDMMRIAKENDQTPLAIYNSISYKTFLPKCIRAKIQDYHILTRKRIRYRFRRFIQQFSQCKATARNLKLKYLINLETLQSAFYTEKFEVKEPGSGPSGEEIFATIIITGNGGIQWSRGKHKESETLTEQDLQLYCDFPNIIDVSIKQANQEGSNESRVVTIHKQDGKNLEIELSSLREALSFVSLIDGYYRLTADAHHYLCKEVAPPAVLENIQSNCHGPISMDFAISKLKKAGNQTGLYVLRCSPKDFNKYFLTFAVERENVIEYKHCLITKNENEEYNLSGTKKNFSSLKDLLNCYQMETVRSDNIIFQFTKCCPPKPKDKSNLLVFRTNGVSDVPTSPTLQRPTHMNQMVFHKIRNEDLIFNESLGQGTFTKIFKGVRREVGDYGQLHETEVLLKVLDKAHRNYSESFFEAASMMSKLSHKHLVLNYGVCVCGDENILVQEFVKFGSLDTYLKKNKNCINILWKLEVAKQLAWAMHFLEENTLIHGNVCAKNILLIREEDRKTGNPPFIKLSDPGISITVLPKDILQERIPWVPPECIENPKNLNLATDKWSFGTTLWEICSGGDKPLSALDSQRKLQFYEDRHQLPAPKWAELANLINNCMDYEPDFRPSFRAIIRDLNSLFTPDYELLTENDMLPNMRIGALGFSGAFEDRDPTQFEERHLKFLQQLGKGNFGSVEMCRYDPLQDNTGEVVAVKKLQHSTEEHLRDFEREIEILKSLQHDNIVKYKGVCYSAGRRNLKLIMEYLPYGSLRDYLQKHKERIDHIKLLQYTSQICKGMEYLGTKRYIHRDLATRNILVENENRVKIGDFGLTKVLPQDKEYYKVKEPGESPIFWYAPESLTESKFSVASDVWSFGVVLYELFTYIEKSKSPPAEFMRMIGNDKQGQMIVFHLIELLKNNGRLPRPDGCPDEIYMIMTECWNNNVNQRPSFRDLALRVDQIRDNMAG

Cytochrome P450 2C9 = Cytochrome P450 2C9 (Homo sapiens, UniProt P11712); assay: Inhibition of CYP2C9 in human liver microsomes using tolbutamide as substrate incubated for 60 mins in presence of NADPH by HPLC analysis; type: ADME, Microsome
Cytochrome P450 2C9, sequence (P11712 whole entry): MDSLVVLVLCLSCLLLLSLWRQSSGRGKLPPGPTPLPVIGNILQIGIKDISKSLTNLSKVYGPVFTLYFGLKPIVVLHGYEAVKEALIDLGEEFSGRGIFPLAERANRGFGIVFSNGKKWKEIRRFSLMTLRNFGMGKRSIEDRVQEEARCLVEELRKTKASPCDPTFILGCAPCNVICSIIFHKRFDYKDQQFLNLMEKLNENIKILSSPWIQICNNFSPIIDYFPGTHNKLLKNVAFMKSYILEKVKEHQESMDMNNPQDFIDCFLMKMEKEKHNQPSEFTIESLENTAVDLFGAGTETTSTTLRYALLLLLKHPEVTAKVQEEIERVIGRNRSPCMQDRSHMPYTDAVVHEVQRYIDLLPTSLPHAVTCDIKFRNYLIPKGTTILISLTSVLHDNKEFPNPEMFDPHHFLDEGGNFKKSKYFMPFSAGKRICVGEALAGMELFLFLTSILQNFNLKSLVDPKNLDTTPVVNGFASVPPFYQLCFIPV

SMILES: COc1ccc(-c2noc(-c3cnc(Oc4ccc5cc(C(=O)N6CCN(Cc7ccc(OCC(F)(F)F)cc7)CC6)n(C)c5c4)cn3)n2)cc1
- Activity [1]: Non-Toxic
- half-life [2]: 9.4 h
- IC50 (Capan-2): 1.9 nM
- AUC(0-inf) [3]: 11600 ng·h/mL
- inhibition [4]: Dde
- IC50 [5]: 5.3 nM
- inhibition [6]: Dde
- MRT last at 24 h [7]: 8.1 h
- inhibition [8]: Tde
- inhibition [9]: Dde
- inhibition [10]: Tde
- microsomal CLint [11]: 18.3 µL/min/mg
- microsomal CLint [12]: 16.9 µL/min/mg
- Activity [13]: Non-Toxic
- IC50 (CFPAC-1 [14]): 6 nM
- Activity [15]: Active
- Activity [16]: Active
- inhibition [17]: Tde
- inhibition (Mus musculus): Active
- remaining at 1 h [18]: 59.5%
- Activity [19]: Non-Toxic
- half-life [20]: 1.37 h
- Activity (BXPC-3 [21]): Active
- remaining at 1 h [22]: 60.5%
- IC50 [23]: 4.2 nM
- Vd [24]: 1.27 L/kg
- Activity [25]: Non-Toxic
- Activity (BXPC-3 [26]): Active
- inhibition [27]: Active
- inhibition (CFPAC-1 [28]): Dde
- inhibition [29]: Tde
- inhibition in vivo at 10 mg/kg (BXPC-3 [30]): 69.2%
- Kd [31]: 21.3 nM
- IC50 [32]: > 10000 nM
- IC50 (Cytochrome P450 2C9): > 50000 nM
